Data as given in PubChem BioAssay AID248 (DTP/NCI, 2004).
Values joined by “and” are separate entries in the source; they are usually repeats but may differ in a detail not shown here. Equal values may be shown once. Toxic doses and inconclusive results are not listed. No stated cut-off is given here; in the data, active means T/C of 150% or more; inactive means T/C below 125%.

System: L1210 leukemia ip in BDF1 mice, survival T/C
Assay: NCI In Vivo Anticancer Drug Screen. Data for tumor model L1210 Leukemia (intraperitoneal) in B6D2F1 (BDF1) mice
Settings: endpoint: mean survival time, higher = longer survival
In short: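 Mice bearing the transplanted tumor received compound or vehicle. Survival of the treated group was divided by that of the vehicle-treated control group to give the ratio.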

[1] = dose: 25.0 mg/kg/injection, schedule: Q01DX009 (ip), vehicle: saline
[2] = dose: 25.0 mg/kg/injection, schedule: Q04DX003 (ip), vehicle: saline
[3] = dose: 50.0 mg/kg/injection, schedule: Q01DX009 (ip), vehicle: saline
[4] = dose: 50.0 mg/kg/injection, schedule: Q04DX003 (ip), vehicle: saline
[5] = dose: 100.0 mg/kg/injection, schedule: Q01DX009 (ip), vehicle: saline
[6] = dose: 100.0 mg/kg/injection, schedule: Q04DX003 (ip), vehicle: saline
[7] = dose: 100.0 mg/kg/injection, schedule: Q01DX009 (ip), vehicle: saline with Tween-80
[8] = dose: 200.0 mg/kg/injection, schedule: Q01DX009 (ip), vehicle: saline with Tween-80
[9] = dose: 200.0 mg/kg/injection, schedule: Q04DX003 (ip), vehicle: saline
[10] = dose: 400.0 mg/kg/injection, schedule: Q04DX003 (ip), vehicle: saline
[11] = dose: 100.0 mg/kg/injection, schedule: Q01DX009 (ip), vehicle: Klucel (hydroxypropylcellulose) (HPC)
[12] = dose: 100.0 mg/kg/injection, schedule: Q04DX003 (ip), vehicle: Klucel (hydroxypropylcellulose) (HPC)
[13] = dose: 200.0 mg/kg/injection, schedule: Q04DX003 (ip), vehicle: Klucel (hydroxypropylcellulose) (HPC)
[14] = dose: 25.0 mg/kg/injection, schedule: Q04DX003 (ip), vehicle: saline with Tween-80
[15] = dose: 100.0 mg/kg/injection, schedule: Q04DX003 (ip), vehicle: saline with Tween-80
[16] = dose: 400.0 mg/kg/injection, schedule: Q01DX009 (ip), vehicle: saline with Tween-80

Measured: T/C

OC(C=S)CS (configuration not stated)
inactive: dose: 100.0 mg/kg/injection, schedule: Q04DX002 (ip), vehicle: saline with Tween-80 95 % of control | dose: 200.0 mg/kg/injection, schedule: Q04DX002 (ip), vehicle: saline with Tween-80 92 % of control | dose: 400.0 mg/kg/injection, schedule: Q04DX002 (ip), vehicle: saline with Tween-80 95 % of control

CCNCCCN
inactive: [1] 97 % of control | [2] 115 % of control | [3] 101 % of control | [4] 115 % of control | [5] 103 % of control | [6] 93 % of control and 103 % of control

O=C(Oc1ccccc1Cl)c1ccccc1
inactive: [7] 113 % of control | [8] 116 % of control

CCOC(=O)N1Cc2cc3cc(OC)ccc3nc2C1
inactive: dose: 50.0 mg/kg/injection, schedule: Q01DX009 (ip), vehicle: acetone 98 % of control | dose: 100.0 mg/kg/injection, schedule: Q01DX009 (ip), vehicle: acetone 95 % of control | [6] 94 % of control | dose: 200.0 mg/kg/injection, schedule: Q01DX009 (ip), vehicle: acetone 95 % of control | [9] 89 % of control | [10] 105 % of control

Nc1cncc2ccccc12
inactive: dose: 25.0 mg/kg/injection, schedule: Q01DX009 (ip), vehicle: gum acacia 96 % of control | dose: 25.0 mg/kg/injection, schedule: Q04DX003 (ip), vehicle: gum acacia 100 % of control | dose: 50.0 mg/kg/injection, schedule: Q01DX009 (ip), vehicle: gum acacia 111 % of control | dose: 50.0 mg/kg/injection, schedule: Q04DX003 (ip), vehicle: gum acacia 98 % of control | dose: 100.0 mg/kg/injection, schedule: Q01DX009 (ip), vehicle: gum acacia 103 % of control | dose: 100.0 mg/kg/injection, schedule: Q04DX003 (ip), vehicle: gum acacia 102 % of control and 104 % of control

CN(C)c1ccc(C=O)c(Oc2ccccc2)c1
inactive: [11] 96 % of control | [12] 97 % of control | dose: 200.0 mg/kg/injection, schedule: Q01DX009 (ip), vehicle: Klucel (hydroxypropylcellulose) (HPC) 110 % of control | [13] 97 % of control | dose: 400.0 mg/kg/injection, schedule: Q01DX009 (ip), vehicle: Klucel (hydroxypropylcellulose) (HPC) 106 % of control | dose: 400.0 mg/kg/injection, schedule: Q04DX003 (ip), vehicle: Klucel (hydroxypropylcellulose) (HPC) 94 % of control

CSc1ccc(NC(=O)CCl)cc1
inactive: dose: 25.0 mg/kg/injection, schedule: Q01DX009 (ip), vehicle: saline with Tween-80 97 % of control | [14] 97 % of control | dose: 50.0 mg/kg/injection, schedule: Q01DX009 (ip), vehicle: saline with Tween-80 108 % of control | dose: 50.0 mg/kg/injection, schedule: Q04DX003 (ip), vehicle: saline with Tween-80 95 % of control | [7] 100 % of control | [15] 101 % of control

C=C(C)C1CNC(C(=O)O)C1CC(=O)O (configuration not stated)
inactive: dose: 6.25 mg/kg/injection, schedule: Q01DX009 (ip), vehicle: saline sonified 102 % of control | dose: 12.5 mg/kg/injection, schedule: Q01DX009 (ip), vehicle: saline sonified 86 % of control

O=NN(Cc1ccccc1)NC(=O)c1ccccc1
inactive: dose: 100.0 mg/kg/injection, schedule: Q04DX002 (ip), vehicle: gum acacia 96 % of control | dose: 200.0 mg/kg/injection, schedule: Q04DX002 (ip), vehicle: gum acacia 104 % of control

CCOC(=O)/C(C#N)=C(/C)C(C)C(=O)OCC (configuration not stated)
inactive: dose: 100.0 mg/kg/injection, schedule: Q01DX001 (ip), vehicle: saline 100 % of control | [5] 102 % of control | dose: 200.0 mg/kg/injection, schedule: Q01DX001 (ip), vehicle: saline 100 % of control | dose: 400.0 mg/kg/injection, schedule: Q01DX001 (ip), vehicle: saline 96 % of control

CC(=O)N(C)CC(O)C(O)C(O)C(O)CO (configuration not stated)
inactive: [15] 100 % of control | dose: 200.0 mg/kg/injection, schedule: Q04DX003 (ip), vehicle: saline with Tween-80 94 % of control | dose: 400.0 mg/kg/injection, schedule: Q04DX003 (ip), vehicle: saline with Tween-80 96 % of control

COc1ccc(/C=N/NC(=O)CNC(=O)c2ccc(Cl)c(Cl)c2)cc1
inactive: dose: 12.5 mg/kg/injection, schedule: Q01DX009 (ip), vehicle: saline with Tween-80 104 % of control

COc1ccc(-n2c(=O)c(N=Nc3ccccc3)c(O)n(-c3ccccc3OC)c2=S)cc1
inactive: dose: 12.5 mg/kg/injection, schedule: Q01DX001 (ip), vehicle: saline with Tween-80 101 % of control | dose: 25.0 mg/kg/injection, schedule: Q01DX001 (ip), vehicle: saline with Tween-80 90 % of control | dose: 50.0 mg/kg/injection, schedule: Q01DX001 (ip), vehicle: saline with Tween-80 94 % of control

CCOC(=O)C(c1ccsc1)C(C(=O)OCC)c1cccs1 (configuration not stated)
inactive: dose: 100.0 mg/kg/injection, schedule: Q01DX001 (ip), vehicle: saline with Tween-80 92 % of control | dose: 200.0 mg/kg/injection, schedule: Q01DX001 (ip), vehicle: saline with Tween-80 98 % of control | dose: 400.0 mg/kg/injection, schedule: Q01DX001 (ip), vehicle: saline with Tween-80 92 % of control

Cc1cnc2c(NC(=O)CCl)nn(C)c2n1
inactive: dose: 25.0 mg/kg/injection, schedule: Q01DX009 (ip), vehicle: Klucel (hydroxypropylcellulose) (HPC) 98 % of control | dose: 50.0 mg/kg/injection, schedule: Q01DX009 (ip), vehicle: Klucel (hydroxypropylcellulose) (HPC) 93 % of control | [11] 93 % of control and 91 % of control | [12] 91 % of control | [13] 93 % of control

CC(C)NNC(=O)C(C)O (configuration not stated)
inactive: [1] 93 % of control | [2] 109 % of control | [3] 90 % of control | [4] 96 % of control | [5] 97 % of control | [6] 93 % of control | dose: 200.0 mg/kg/injection, schedule: Q01DX009 (ip), vehicle: saline 87 % of control | [9] 112 % of control | dose: 400.0 mg/kg/injection, schedule: Q01DX009 (ip), vehicle: saline 95 % of control | [10] 96 % of control

NC(N)=N/N=C/c1cccc(Cl)c1
inactive: dose: 3.75 mg/kg/injection, schedule: Q01DX Z (ip), vehicle: saline 92 % of control | dose: 7.5 mg/kg/injection, schedule: Q01DX Z (ip), vehicle: saline 94 % of control | dose: 15.0 mg/kg/injection, schedule: Q01DX Z (ip), vehicle: saline 94 % of control | dose: 15.0 mg/kg/injection, schedule: Q01DX Z (oral), vehicle: saline 98 % of control | dose: 30.0 mg/kg/injection, schedule: Q01DX Z (ip), vehicle: saline 100 % of control | dose: 30.0 mg/kg/injection, schedule: Q01DX Z (oral), vehicle: saline 98 % of control | dose: 60.0 mg/kg/injection, schedule: Q01DX Z (oral), vehicle: saline 98 % of control | dose: 120.0 mg/kg/injection, schedule: Q01DX Z (oral), vehicle: saline 102 % of control

C1C2CC3C1C3/C2=N\N=C1/C2CC3C(C2)C13
inactive: dose: 75.0 mg/kg/injection, schedule: Q01DX001 (ip), vehicle: saline 101 % of control | dose: 150.0 mg/kg/injection, schedule: Q01DX001 (ip), vehicle: saline 89 % of control | dose: 300.0 mg/kg/injection, schedule: Q01DX001 (ip), vehicle: saline 98 % of control

CCOC(=O)C(C#N)CCC#N (configuration not stated)
inactive: [7] 113 % of control | [8] 98 % of control | [16] 104 % of control

CCCN(CCC)C(=O)C(=O)OCC
inactive: dose: 6.25 mg/kg/injection, schedule: Q04DX003 (ip), vehicle: saline with Tween-80 102 % of control | dose: 12.5 mg/kg/injection, schedule: Q04DX003 (ip), vehicle: saline with Tween-80 94 % of control | [14] 98 % of control

O=C(O)CCc1ccccc1
inactive: [4] 98 % of control | [7] 92 % of control | [6] 104 % of control | [8] 95 % of control | [9] 95 % of control | [16] 86 % of control | [10] 98 % of control
